Reference: patent US7727950B2, “Methods and reagents for assaying protein kinase activity” (The University of Dundee, priority 2002, dated 2010)
Square brackets hold non-standard residues; d marks the D form. Ends that are not written are not given here. pS = N[C@@H](COP(=O)(O)O)C(=O)O

Tests used:
PKCα = target: T1, PKCα (Homo sapiens, UniProt P17252); experiment: Kinetic parameters for peptide phosphorylation, radioactive filter-binding assay; assay type: biochemical; conditions: Standard Substrate = histone H1
T1 construct: purchased Calbiochem Novachem Corp; host or cells: Sf21 insect cells
Text: (§1) Apart from the AMP-activated protein kinase (AMPK, a gift from Drs S. Hawley and D. G. Hardie), cGMP-dependent protein kinase (PKG, a generous gift from Drs Susan Lohmann and Ulrich Walter, University of Wurzburg, Germany) and the catalytic subunit of cyclic AMP-dependent protein kinase (PKA, a gift from Dr C. Smythe), which were isolated from rat liver, bovine lung and bovine heart, respectively, all other protein kinases were expressed as either GST-fusion or His-tagged proteins (by a person, a person, Dr A. Paterson or a person, in this Division). The expressed proteins all corresponded to the human sequences apart from the rat Rho-dependent protein kinase (ROCK-II) and rat mitogen-activated protein kinase (MAPK) activated kinase-1a (MAPKAP-K1a, also called RSK). GST-fusion proteins were purified on GSH-agarose (Amersham Pharmacia Biotech, Amersham, UK) and His-tagged proteins on Ni-NTA agarose (Qiagen) essentially according to the manufacturer's instructions. All the protein kinases used in this study are available from Upstate Biotechnology Inc. (Lake Placid, N.Y., USA), apart from the α-isoform of calmodulin-dependent protein kinase II (CaMKII), MAPKAP-K3 and PKG. […]
(§2) All protein kinase assays were linear with respect to time. […] All papers were subsequently washed a further three times in phosphoric acid, once in acetone, then dried and counted for radioactivity. […] The plates were then washed six times (five min per wash) in PBS, 0.1% Tween 20 and binding of the phospho-specific antibody detected by incubating the plates with peroxidase-conjugated anti-sheep antibodies (Pierce). […] Signals were quantitated on LAS-1000IR software (FujiFilm). […]

ROCKII = target: T2, ROCKII (Rattus norvegicus, UniProt Q62868); experiment: as above; assay type: biochemical; conditions: Standard Substrate = KEAKEKRQEQIAKRRRLSSLRASTSKSGGSQK
T2 construct: rat ROCKII[1-543]; made in house; host or cells: Sf21 insect cells
T2 sequence (Q62868 1-543): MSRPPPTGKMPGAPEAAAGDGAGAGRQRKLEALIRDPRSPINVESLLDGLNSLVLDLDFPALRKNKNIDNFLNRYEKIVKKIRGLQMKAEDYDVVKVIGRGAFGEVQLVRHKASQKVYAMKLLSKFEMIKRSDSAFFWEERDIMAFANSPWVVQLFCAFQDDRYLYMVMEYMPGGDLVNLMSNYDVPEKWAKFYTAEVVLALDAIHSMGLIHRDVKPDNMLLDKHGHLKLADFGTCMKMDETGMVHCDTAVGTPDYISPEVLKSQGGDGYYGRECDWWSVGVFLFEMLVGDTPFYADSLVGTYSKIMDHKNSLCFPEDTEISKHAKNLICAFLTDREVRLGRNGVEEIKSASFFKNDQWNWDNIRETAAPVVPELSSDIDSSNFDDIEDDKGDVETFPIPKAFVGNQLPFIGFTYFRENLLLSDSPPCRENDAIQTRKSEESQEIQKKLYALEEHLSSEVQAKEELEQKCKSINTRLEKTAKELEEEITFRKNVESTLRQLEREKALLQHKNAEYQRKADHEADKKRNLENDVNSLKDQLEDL
Text: as §1, §2

[1] = tested on: peptide LpSFAEPGC conjugated to bovine serum albumin; experiment: Immunoblot of phospho-specific antibody with peptide competition (FIG. 1); assay type: binding; conditions: competition studies
Experimental: Aliquots (10 ng or 100 ng) of the peptide LpSFAEPGC (SEQ ID NO: 17) conjugated to bovine serum albumin were spotted on to a nitrocellulose membrane and immunoblotted with the phospho-specific antibody raised against the phospho-peptide immunogen in the presence or absence of the peptides shown on the right. The prefix “p” before S denotes the serine-phosphorylated form of the peptide.
Antibodies that recognise the common seven residue phosphorylated motif (LpSFAEPG) (SEQ ID NO:7) contained within each of the three generic peptide substrates described under results, were raised against the peptide LpSFAEPGC (SEQ ID NO:17) (where pS represents phosphoserine). The C-terminal cysteine residue was added to enable coupling to keyhole limpet haemocyanin. The peptide-protein conjugate was injected into sheep at Diagnostic Scotland (Carluke, U.K.) and the anti-sera purified on protein G-Sepharose (Amersham Pharmacia Biotech) by Dr J. Leitch in this Unit. Antibodies were used at a concentration of 2 μg/ml for immunoblotting and 10-20 μg/ml for detection of phosphorylated peptides in the modified ELISA format. Rabbit anti-sheep antibodies conjugated to peroxidase were obtained from Pierce (Tattenhall, Cheshire, UK) and used at 1/10,000 dilution. […]

CHK2 = target: T3, CHK2 (Homo sapiens, UniProt O96017); experiment: Kinetic parameters for peptide phosphorylation, radioactive filter-binding assay; assay type: biochemical; conditions: Standard Substrate = KKKVSRSGLYRSPSMPENLNRPR
T3 construct: an additional His-tag at the extreme C-terminus, to aid purification of the full-length product; GST; His-tag (C); made in house; host or cells: E. coli
T3 sequence (O96017 whole entry): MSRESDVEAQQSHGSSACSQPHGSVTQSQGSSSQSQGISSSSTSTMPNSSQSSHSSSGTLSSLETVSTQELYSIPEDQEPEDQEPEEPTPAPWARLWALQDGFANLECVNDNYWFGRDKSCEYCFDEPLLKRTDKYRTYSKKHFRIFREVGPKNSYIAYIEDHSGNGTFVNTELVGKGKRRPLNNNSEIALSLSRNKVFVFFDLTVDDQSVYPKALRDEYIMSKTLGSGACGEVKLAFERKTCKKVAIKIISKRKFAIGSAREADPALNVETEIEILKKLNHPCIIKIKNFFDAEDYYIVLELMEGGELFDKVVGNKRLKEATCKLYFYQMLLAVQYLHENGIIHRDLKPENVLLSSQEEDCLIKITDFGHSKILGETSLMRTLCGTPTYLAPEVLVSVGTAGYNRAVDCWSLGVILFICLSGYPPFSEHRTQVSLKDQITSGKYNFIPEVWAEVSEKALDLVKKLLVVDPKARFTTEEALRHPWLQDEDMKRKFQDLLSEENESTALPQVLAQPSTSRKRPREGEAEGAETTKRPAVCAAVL
Text: as §1, with “RSK).” for “RSK). GST-fusion proteins were purified on GSH-agarose (Amersham Pharmacia Biotech, Amersham, UK) and His-tagged proteins on Ni-NTA agarose (Qiagen) essentially according to the manufacturer's instructions. All the protein kinases used in this study are available from Upstate Biotechnology Inc. (Lake Placid, N.Y., USA), apart from the α-isoform of calmodulin-dependent protein kinase II (CaMKII), MAPKAP-K3 and PKG.”
as §2

CHK1 = target: T4, CHK1 (Homo sapiens, UniProt O14757); experiment: as above; assay type: biochemical; conditions: Standard Substrate = KKKVSRSGLYRSPSMPENLNRPR
T4 construct: made in house; host or cells: Sf21 insect cells
T4 sequence (O14757 1-476): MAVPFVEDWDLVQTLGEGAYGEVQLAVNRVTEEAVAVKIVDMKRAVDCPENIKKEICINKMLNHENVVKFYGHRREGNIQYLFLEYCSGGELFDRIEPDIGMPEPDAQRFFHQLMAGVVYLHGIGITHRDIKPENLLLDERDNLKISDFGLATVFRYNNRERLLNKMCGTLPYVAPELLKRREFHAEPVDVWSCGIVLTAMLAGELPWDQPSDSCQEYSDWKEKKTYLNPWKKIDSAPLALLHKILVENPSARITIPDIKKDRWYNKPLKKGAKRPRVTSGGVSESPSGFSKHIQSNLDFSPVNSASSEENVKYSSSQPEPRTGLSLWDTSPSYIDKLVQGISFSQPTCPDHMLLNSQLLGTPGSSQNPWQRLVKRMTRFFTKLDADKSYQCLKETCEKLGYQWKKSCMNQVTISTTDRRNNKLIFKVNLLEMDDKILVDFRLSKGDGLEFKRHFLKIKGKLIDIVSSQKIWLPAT
Text: as §1, §2

RRRLSFAEPG
Km (PKCα): > 500 µM | Km (ROCKII): > 100 µM

LpSFAEPG (L[pS]FAEPG) [seven residue phospho-peptide antigen, pS is phosphoserine]
neutralisation of the phosphopeptide antibody by pre-incubation with peptide [1]: neutralised

RARTLSFAEPG
Km (CHK2): > 300 µM | Km (CHK1): 5 µM
